Experimental findings from US12338351B2, “Dip molding emulsion, method of producing glove, and glove” (Midori Anzen Co., Ltd., priority 2018, dated 2025) are described below.

Common to all, as to format: physicochemical
Data set [1] can be described thus: MIBK/water distribution ratio of epoxy crosslinking agent. To be noted: 5.0 g water, 5.0 g MIBK, 0.5 g crosslinking agent, 23±2° C., average of three. Here is the method:
Method of measuring the MIBK/water distribution ratio: in a test tube, 5.0 g of water, 5.0 g of methyl isobutyl ketone (MIBK) and 0.5 g of the epoxy crosslinking agent are precisely weighed and mixed with stirring at 23° C.±2° C. for 3 minutes, and the resulting mixture is centrifuged at 1.0×103 G for 10 minutes and thereby separated into an aqueous layer and an MIBK layer, after which the MIBK layer is fractionated and weighed to calculate the MIBK/water distribution ratio using the following equation: MIBK/water distribution ratio (%)=(Weight of separated MIBK layer (g)−Weight of MIBK before separation (g))/Weight of added crosslinking agent (g)×100 • this measurement is performed three times, and an average value thereof is defined as the MIBK/water distribution ratio.
First, about 5.0 g of water, about 5.0 g of MIBK and about 0.5 g of the epoxy crosslinking agent are precisely weighed and added to a test tube. The weight of MIBK and that of the epoxy crosslinking agent are defined as M (g) and E (g), respectively.
This mixture is thoroughly mixed with stirring for 3 minutes at a temperature of 23° C.±2° C. and subsequently separated into an aqueous layer and an MIBK layer by 10-minute centrifugation at 1.0×10^3 G. Thereafter, the weight of the MIBK layer is measured and defined as ML (g). MIBK/water distribution ratio (%)=(ML (g)−M (g))/E (g)×100
The methyl isobutyl ketone (MIBK)/water distribution ratio (%) was measured for the purpose of checking the amount of the movement of each epoxy crosslinking agent into an MIBK layer in an environment similar to the environment in a latex liquid.
3. Fractionate the thus separated MIBK layer into a disposable cup using a Pasteur pipette and measure the weight of the MIBK layer.
4. Calculate the MIBK/water distribution ratio using the following equation: MIBK/water distribution ratio (%)=(Weight (g) of separated MIBK layer−Weight (g) of MIBK before separation))/(Weight (g) of added crosslinking agent)×100
5. Perform this measurement three times, and calculate the average value thereof as the MIBK/water distribution ratio.
It is noted here that a vortex mixer (VORTEX-GENIE 2 Mixer, standard model; manufactured by Scientific Industries, Inc.) was used for the stirring in the procedure 2.

The nature of data set [2]: Dissolution rate in water of epoxy crosslinking agent. To be noted: 25.0 g in 225 g water (25° C.), stirred 15 minutes, left to stand 1 hour. Here is the method:
1. Precisely weigh 25.0 g of the epoxy crosslinking agent composition in a beaker, and add thereto 225 g of water (25° C.).
2. Vigorously stir and mix the resultant at room temperature (23° C.±2° C.) for 15 minutes, and leave the resulting mixture to stand for 1 hour.
3. Measure the volume (mL) of an oily matter precipitated on the bottom of the beaker.
The dissolution rate in water (%) was measured for the purpose of checking the solubility of each epoxy crosslinking agent in water. The dissolution rate in water can be measured by the following procedures.
1. Precisely weigh 25.0 g of the subject crosslinking agent composition in a beaker.
2. Add 225 g of 25° C. water, and vigorously stir the resultant at room temperature for 15 minutes using a magnetic stirrer.
3. After leaving the beaker to stand at room temperature for 1 hour, measure the volume (mL) of an oily matter precipitated on the bottom.

Data set [3] is described as follows: Pot life (working life) of dip molding composition. To be noted: XNBR NL120H(a). The text has this:
The term “pot life” used herein represents a property of a dip molding composition, and a method of determining the “pot life” will be described below in the section of Examples. Specifically, the “pot life” refers to a period from the preparation of a dip molding composition to the formation of a cured film, in which period the use of the dip molding composition allows the resulting cured film to satisfy specific criteria.
In the present invention, the acceptable level of the pot life of the dip molding composition necessary for mass production is defined as a level at which a film produced using the dip molding composition that has been stored for at least 3 days satisfies a tensile strength of 20 MPa or higher and a fatigue durability of 240 minutes or longer, which are performances required as a glove.
The pot life is determined based on the time from the addition of an epoxy crosslinking agent in the preparation of a dip molding composition to adhesion of the dip molding composition to a glove forming mold. Moreover, the types of XNBRs and epoxy crosslinking agents used in dip molding compositions are shown in the respective Tables below.
The pot life of each dip molding composition was determined by the following procedures. The unit of the pot life is day. The dip molding compositions were prepared using the respective epoxy crosslinking agents and stored, and cured films were produced at one-day intervals. […] The number of days of storage until the last acceptable day was defined as the pot life. In this Experimental Example, experiments were conducted until day 7 as the longest duration of storage.

The mark [4] stands for this setting: 0.5 parts by weight epoxy crosslinking agent, fatigue durability 240 minutes acceptable line, experiments until day 7.

Regarding `CC(COCC1CO1)OCC1CO1` (stereo not drawn) [epoxy crosslinking agent M, propylene glycol diglycidyl ether], the MIBK/water distribution ratio in data set [1] was found to be 57%. Moreover, the “Dissolution rate in water” value in data set [2] came out at 75%.

“sorbitol polyglycidyl ether [epoxy crosslinking agent I]”: the MIBK/water distribution ratio in data set [1] (listed as I) was determined as 26%. Further, the “Dissolution rate in water” value in data set [2] (listed as I) is given as 78%.

With “diglycerol triglycidyl ether [epoxy crosslinking agent G]”, the MIBK/water distribution ratio in data set [1] was determined as 36%. In addition, the “Pot life” value in data set [3] (setting [4]) was 3 days. The “Dissolution rate in water” value in data set [2] is recorded as 88%.

In the case of `C(OCC1CO1)C(COCC1CO1)OCC1CO1` (stereo not drawn) [epoxy crosslinking agent H, glycerol triglycidyl ether], the MIBK/water distribution ratio in data set [1] came to 28%. Further, the entries for the “Pot life” value in data set [3] (setting [4]) and in data set [3] (added amount of epoxy crosslinking agent increased to 1.0 part by weight) were 2 days and 3 days, respectively. Moreover, the “Dissolution rate in water” value in data set [2] is 99%.

For the molecule “polyglycerol polyglycidyl ether [epoxy crosslinking agent L]”, the MIBK/water distribution ratio in data set [1] (listed as L) is given as −10%.

On to “polyglycerol polyglycidyl ether [epoxy crosslinking agent K]”, for which the MIBK/water distribution ratio in data set [1] (listed as K) amounted to 6%. Also, in data set [2], the “Dissolution rate in water” value stood at 100%.

For the molecule “sorbitol polyglycidyl ether [epoxy crosslinking agent J]”, the MIBK/water distribution ratio in data set [1] (listed as J) came out at 23%. Besides, the “Dissolution rate in water” value in data set [2] (listed as J) is 94%.

“polyethylene glycol diglycidyl ether [epoxy crosslinking agent N]”: the MIBK/water distribution ratio in data set [1] is listed as 4%. In addition, in data set [2], the “Dissolution rate in water” value amounted to 99%.
